Experimental data: paper PMC9962964, “^68Ga-Labeled [Thz^14]Bombesin(7–14) Analogs: Promising GRPR-Targeting Agonist PET Tracers with Low Pancreas Uptake” (Molecules, 2023)
Where two headings read alike, the source gives them in different places.

Assays:
[1] = target: T1, GRPR (Homo sapiens, UniProt P30550); test: Fluorometric calcium release assay in PC-3 cells; assay type: cell-based; set-up: generated using GRPR-expressing PC-3 cells; endogenous in cells; host or cells: PC-3 cells; settings: 50 nM ligand
Protocol: Following previously published procedures, 5 × 10^4 PC-3 cells in 100 μL of growth media were seeded per well in a 96-well, clear bottom black plate 24 h before the assay. The loading buffer (100 μL/well), containing a calcium-sensitive dye (FLIPR Calcium 6 assay kit), was added to the 96-well plate. After incubation at 37 °C for 2 h, the plate was placed in a FlexStation 3 microplate reader (Molecular Devices). […] Agonistic/antagonistic properties were determined using the relative fluorescent unit (RFU = max–min).

[2] = 15 min post-injection
Protocol: PET/CT imaging, biodistribution, and in vivo stability studies were conducted on male NOD.Cg-Rag1^tm1Mom Il2rg^tm1Wjl/SzJ (NRG) mice, following previously published procedures. The experiments were conducted according to the guidelines established by the Canadian Council on Animal Care and approved by the Animal Ethics Committee of the University of British Columbia (protocol number A20-0113, approved on 30 September 2020). […] Mice were used for PET/CT imaging and biodistribution studies when the tumor grew to 5–8 mm in diameter over around 4 weeks.
At 15 min post-injection, mice were sedated and euthanized, and urine and blood were collected. The plasma was extracted from whole blood by adding CH3CN (500 μL), vortex, centrifugation, and the separation of supernatant. The plasma and urine samples were analyzed via radio-HPLC using the conditions for quality control of these ^68Ga-labeled radioligands (Table S3).

[3] = system: PC-3 tumor xenografts; test: PET/CT imaging of PC-3 tumor xenografts; assay type: in vivo, NRG mice; settings: 1 h post-injection
Protocol: PET/CT imaging experiments were performed on a Siemens (Knoxville, TN) Inveon micro PET/CT scanner. The tumor-bearing mouse was injected with 3–5 MBq of ^68Ga-labeled tracer through a lateral caudal tail vein under anesthesia, followed by recovery and roaming freely in its cage during the uptake period. At 50 min post-injection, a 10 min CT scan was conducted first for the localization and attenuation correction after segmentation for reconstructing the PET images, followed by a 10 min static PET imaging acquisition.

[4] = Ex vivo biodistribution in PC-3 tumor-bearing mice; set-up: species or system NRG mice; settings: mouse, 1 h post-injection; for tissue to tissue ratio at 1 h: male, NRG (NOD.Cg-Rag1^tm1Mom Il2rg^tm1Wjl/SzJ), iv, total radioactivity; for tissue uptake at 1 h: intravenous
Protocol: For biodistribution studies, the mice were injected with the radiotracer (2–4 MBq) via the tail vein as described above. For blocking, the mice were co-injected with 100 μg of [D-Phe^6,Leu-NHEt^13,des-Met^14]Bombesin(6–14). At 1 h post-injection, the mice were anesthetized through isoflurane inhalation and euthanized through CO2 inhalation. Blood was collected through a cardiac puncture, and organs/tissues of interest were collected, weighed, and counted using a Perkin Elmer (Waltham, MA, USA) Wizard2 2480 automatic gamma counter.

[5] = pH 7.4
Protocol: Briefly, aliquots (2 μL) of the ^68Ga-labeled peptides were added into a 15 mL falcon tube containing 3 mL of n-octanol and 3 mL of 0.1 mol/L DPBS (pH 7.4). The mixture was vortexed for 1 min and then centrifuged at 3000 rpm for 15 min. Samples of the n-octanol (1 mL) and buffer (1 mL) layers were collected and measured in a gamma counter. LogD7.4 was calculated using the following equation: LogD7.4 = log10 [(counts in the n-octanol phase)/(counts in the buffer phase)].

[6] = target: T1, GRPR; set-up: generated using GRPR-expressing PC-3 cells; endogenous in cells; method as in PMID 21552898, PMID 7809097; settings: Schally group; cited from earlier work
[7] = target: T1, GRPR; test: In vitro competition binding assay with [125I-Tyr4]Bombesin on PC-3 cells; set-up: generated using GRPR-expressing PC-3 cells; endogenous in cells; host or cells: PC-3 cells; settings: displacement of [125I-Tyr4]Bombesin, n = 3
Protocol: PC-3 cells were seeded in 24-well, poly-D-lysine plates at 2 × 10^5 cells/well 24–48 h prior to the assay. […] Then, the plates were incubated for about 60 min at 37 °C. […] Data were analyzed using nonlinear regression (one binding site model for competition assay) with GraphPad (San Diego, CA, USA) Prism 8.4.3 software.

T1 sequence (P30550 whole entry): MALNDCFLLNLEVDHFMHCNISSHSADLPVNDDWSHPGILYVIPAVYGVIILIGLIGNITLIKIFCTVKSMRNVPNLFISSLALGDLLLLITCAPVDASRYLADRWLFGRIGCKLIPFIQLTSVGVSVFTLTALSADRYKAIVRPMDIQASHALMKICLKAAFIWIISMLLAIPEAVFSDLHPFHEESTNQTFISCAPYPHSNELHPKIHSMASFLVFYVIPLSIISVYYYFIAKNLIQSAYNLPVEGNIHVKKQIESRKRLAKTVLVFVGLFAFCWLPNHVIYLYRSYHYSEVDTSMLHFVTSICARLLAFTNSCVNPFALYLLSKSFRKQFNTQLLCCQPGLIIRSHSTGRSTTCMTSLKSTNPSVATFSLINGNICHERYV

Compound: Nc1ncnc2c1ncn2[C@@H]1O[C@H](COP(=O)(O)OP(=O)(O)OP(=O)(O)O)[C@@H](O)[C@H]1O [ATP, adenosine triphosphate]
- Ca2+ efflux (RFU = max–min) [1]: 334 ± 39.0 RFUs

Compound: CC(C)C[C@H](NC(=O)[C@H](Cc1c[nH]cn1)NC(=O)CNC(=O)[C@@H](NC(=O)[C@H](C)NC(=O)[C@H](Cc1c[nH]c2ccccc12)NC(=O)[C@H](CCC(N)=O)NC(=O)[C@@H](Cc1ccc2ccccc2c1)NC(=O)CN1CCC(NC(=O)CN2CCN(CC(=O)O)CCN(CC(=O)O)CCN(CC(=O)O)CC2)CC1)C(C)C)C(=O)N1CSC[C@H]1C(N)=O [[^68Ga]Ga-TacBOMB3, metal not drawn]
- intact fraction in plasma ([2]; mouse plasma, n = 3): 27.3 ± 4.84%
- intact tracer in urine ([2]; mouse urine): no intact
- visualization of PC-3 tumor xenografts in PET images [3]: clearly visualized
- excretion pathway ([3]; PET images): primarily excreted via the renal pathway
- tissue to tissue ratio at 1 h ([4]; tumor and bone, n = 4, read-out: Tumor/bone uptake ratio): 29.9 ± 8.5
- tissue to tissue ratio at 1 h ([4]; tumor and intestines, n = 4, read-out: Tumor/intestines uptake ratio): 4.93 ± 0.84
- tissue to tissue ratio at 1 h ([4]; tumor and kidney, n = 4, read-out: Tumor/kidney uptake ratio): 1.34 ± 0.58
- tissue to tissue ratio at 1 h ([4]; tumor and muscle, n = 4, read-out: Tumor/muscle uptake ratio): 23.5 ± 9.61
- tissue to tissue ratio at 1 h ([4]; tumor and pancreas, n = 4, read-out: Tumor/pancreas uptake ratio): 2.21 ± 0.4
- tissue to tissue ratio at 1 h ([4]; tumor and whole blood, n = 4, read-out: Tumor/blood uptake ratio): 5.61 ± 2.33
- tissue uptake at 1 h ([4]; PC-3 tumor, n = 4, read-out: PC-3 tumor uptake): 5.09 ± 0.54 %ID/g
- tissue uptake at 1 h ([4]; blood, n = 4, read-out: Blood uptake): 1.06 ± 0.51 %ID/g
- tissue uptake at 1 h ([4]; brain, muscle, fat, bone, liver, stomach, heart, and spleen, read-out: Uptake values for the brain, muscle, fat, bone, liver, stomach, heart, and spleen): < 1 %ID/g
- tissue uptake at 1 h ([4]; fat, n = 4, read-out: Fat uptake): 0.19 ± 0.18 %ID/g
- tissue uptake at 1 h ([4]; heart, n = 4, read-out: Heart uptake): 0.35 ± 0.18 %ID/g
- tissue uptake at 1 h ([4]; intestines, n = 4, read-out: Intestines uptake): 1.06 ± 0.26 %ID/g
- tissue uptake at 1 h ([4]; kidneys, n = 4, read-out: Kidneys uptake): 4.61 ± 2.72 %ID/g
- tissue uptake at 1 h ([4]; liver, n = 4, read-out: Liver uptake): 0.65 ± 0.19 %ID/g
- tissue uptake at 1 h ([4]; lungs, n = 4, read-out: Lungs uptake): 1.63 ± 0.75 %ID/g
- tissue uptake at 1 h ([4]; muscle, n = 4, read-out: Muscle uptake): 0.24 ± 0.12 %ID/g
- tissue uptake at 1 h ([4]; pancreas, n = 4, read-out: Pancreas uptake): 2.41 ± 0.72 %ID/g
- tissue uptake at 1 h ([4]; spleen, n = 4, read-out: Spleen uptake): 0.5 ± 0.32 %ID/g
- tissue uptake at 1 h ([4]; stomach, n = 4, read-out: Stomach uptake): 0.82 ± 0.37 %ID/g
- tissue uptake at 1 h ([4]; testes, n = 4, read-out: Testes uptake): 0.37 ± 0.06 %ID/g
- logD [5]: -2.55 ± 0.03

Compound: D-2-Nal-[Leu^13ψThz^14]Bombesin(7–14) [RC-3965-II]
- binding affinity to GRPR [6]: picomolar binding affinity

Compound: D-Phe-[Leu^13ψThz^14]Bombesin(7–14) [RC-3950-II]
- binding affinity to GRPR [6]: picomolar binding affinity

Compound: D-Tpi-[Leu^13ψThz^14]Bombesin(7–14) [RC-3910-II]
- binding affinity to GRPR [6]: picomolar binding affinity

Compound: Ga-TacBOMB2: nonradioactive Ga-complexed standard of TacBOMB2 (FQWAVGHLX; Ga-DOTA-Pip (4-amino-(1-carboxymethyl)piperidine) on the N-terminus; residue 1 is D-Phe; X9 = Thz (thiazoline/thiazolidine-4-carboxylic acid, named thiazoline in the text) replacing Met14, normal Leu1)
- Ki [7]: 7.62 ± 0.19 nM

Compound: [D-Phe^6,Leu-NHEt^13,des-Met^14]Bombesin(6–14)
- Ca2+ efflux (RFU = max–min) [1]: 25.3 ± 1.92 RFUs

Compound: bombesin
- Ca2+ efflux (RFU = max–min) [1]: 754 ± 38.3 RFUs
